What was measured:
[1] = DRUGMATRIX: Serotonin (5-Hydroxytryptamine) 5-HT3 radioligand binding (ligand: [3H] GR-65630); assay type: cell membranes, Membrane; conditions: hek293; Not Active = under 50% inhibition at 10 µM
[2] = target: T1, C-X-C chemokine receptor type 2 (Homo sapiens, UniProt P25025); assay type: cell membranes, Membrane; conditions: cho-k1; further: in other assays of this panel Not Active means under 50% inhibition at 10 µM
T1 sequence (P25025 whole entry): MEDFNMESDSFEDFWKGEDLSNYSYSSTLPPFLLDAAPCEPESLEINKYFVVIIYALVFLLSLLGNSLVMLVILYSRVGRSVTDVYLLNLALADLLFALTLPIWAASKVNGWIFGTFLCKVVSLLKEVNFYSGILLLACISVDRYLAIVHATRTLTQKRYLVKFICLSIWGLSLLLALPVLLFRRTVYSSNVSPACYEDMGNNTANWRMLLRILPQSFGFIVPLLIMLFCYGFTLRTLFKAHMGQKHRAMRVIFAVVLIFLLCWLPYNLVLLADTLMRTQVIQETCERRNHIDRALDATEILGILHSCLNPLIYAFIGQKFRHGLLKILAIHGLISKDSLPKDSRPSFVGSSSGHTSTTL

[3] = target: T2, Amine oxidase [flavin-containing] A (Homo sapiens, UniProt P21397); assay: DRUGMATRIX: Monoamine Oxidase MAO-A enzyme inhibition (substrate: Kynuramine); parameters: species or system BTI-TN-5B1-4; conditions: Not Active = under 50% inhibition at 10 µM
T2 sequence (P21397 whole entry): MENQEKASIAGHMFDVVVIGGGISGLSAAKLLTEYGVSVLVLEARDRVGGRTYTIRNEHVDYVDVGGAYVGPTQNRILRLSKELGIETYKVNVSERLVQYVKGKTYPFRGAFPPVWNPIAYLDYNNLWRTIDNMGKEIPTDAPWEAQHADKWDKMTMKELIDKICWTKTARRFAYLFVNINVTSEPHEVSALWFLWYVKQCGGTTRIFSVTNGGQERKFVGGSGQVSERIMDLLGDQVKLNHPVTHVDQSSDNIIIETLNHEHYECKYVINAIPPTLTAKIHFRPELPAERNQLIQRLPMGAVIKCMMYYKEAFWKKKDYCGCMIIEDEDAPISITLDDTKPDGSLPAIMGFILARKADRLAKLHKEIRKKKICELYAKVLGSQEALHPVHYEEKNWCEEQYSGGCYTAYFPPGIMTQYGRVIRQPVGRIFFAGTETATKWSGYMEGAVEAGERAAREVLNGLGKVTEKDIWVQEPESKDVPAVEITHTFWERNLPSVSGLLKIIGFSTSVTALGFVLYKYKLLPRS

[4] = target: Nitric oxide synthase 1 (Rattus norvegicus, UniProt P29476); assay type: tissue-based, Cerebellum; further: in other assays of this panel Not Active means under 50% inhibition at 10 µM
[5] = target: Kappa-type opioid receptor (Homo sapiens, UniProt P41145); assay: DRUGMATRIX: Opiate kappa (OP2, KOP) radioligand binding (ligand: [3H] Diprenorphine); assay type: cell membranes, HEK293, Membrane; conditions: Not Active = under 50% inhibition at 10 µM
[6] = target: T3, Adenosine receptor A1 (Homo sapiens, UniProt P30542); assay type: cell membranes, CHO, Membrane;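 further: radioligand binding assay at the adenosine A1 receptor, with DPCPX serving as the labelled ligand; in other assays of this panel Not Active means under 50% inhibition at 10 µM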
T3 sequence (P30542 whole entry): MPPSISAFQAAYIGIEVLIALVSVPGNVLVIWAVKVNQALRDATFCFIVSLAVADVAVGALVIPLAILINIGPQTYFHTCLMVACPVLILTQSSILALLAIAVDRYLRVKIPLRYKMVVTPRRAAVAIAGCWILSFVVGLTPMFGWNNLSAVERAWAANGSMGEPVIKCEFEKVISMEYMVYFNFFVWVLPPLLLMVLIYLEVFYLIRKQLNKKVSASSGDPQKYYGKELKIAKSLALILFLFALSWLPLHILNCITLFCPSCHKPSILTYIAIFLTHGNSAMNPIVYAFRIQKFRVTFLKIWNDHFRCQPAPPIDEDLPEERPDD

[7] = target: T4, Cytochrome P450 2A6 (Homo sapiens, UniProt P11509); conditions: bti-tn-5b1-4; further: in other assays of this panel Not Active means under 50% inhibition at 10 µM
T4 sequence (P11509 whole entry): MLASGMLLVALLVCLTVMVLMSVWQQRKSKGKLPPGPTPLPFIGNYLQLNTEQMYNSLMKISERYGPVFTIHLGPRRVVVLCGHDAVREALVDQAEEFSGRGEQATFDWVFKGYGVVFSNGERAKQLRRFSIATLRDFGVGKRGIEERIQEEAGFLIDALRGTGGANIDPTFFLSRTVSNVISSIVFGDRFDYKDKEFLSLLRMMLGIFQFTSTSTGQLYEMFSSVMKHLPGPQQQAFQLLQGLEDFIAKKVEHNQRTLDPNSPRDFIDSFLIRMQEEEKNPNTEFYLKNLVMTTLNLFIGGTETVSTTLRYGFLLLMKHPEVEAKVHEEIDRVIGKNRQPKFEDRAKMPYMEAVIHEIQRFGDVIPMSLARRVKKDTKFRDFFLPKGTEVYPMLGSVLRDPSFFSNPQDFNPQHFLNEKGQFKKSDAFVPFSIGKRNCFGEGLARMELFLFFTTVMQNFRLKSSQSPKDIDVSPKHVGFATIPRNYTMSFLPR

[8] = target: Cytochrome P450 2E1 (Homo sapiens, UniProt P05181); conditions: bti-tn-5b1-4; further: in other assays of this panel Not Active means under 50% inhibition at 10 µM
Cytochrome P450 2E1, sequence (P05181 whole entry): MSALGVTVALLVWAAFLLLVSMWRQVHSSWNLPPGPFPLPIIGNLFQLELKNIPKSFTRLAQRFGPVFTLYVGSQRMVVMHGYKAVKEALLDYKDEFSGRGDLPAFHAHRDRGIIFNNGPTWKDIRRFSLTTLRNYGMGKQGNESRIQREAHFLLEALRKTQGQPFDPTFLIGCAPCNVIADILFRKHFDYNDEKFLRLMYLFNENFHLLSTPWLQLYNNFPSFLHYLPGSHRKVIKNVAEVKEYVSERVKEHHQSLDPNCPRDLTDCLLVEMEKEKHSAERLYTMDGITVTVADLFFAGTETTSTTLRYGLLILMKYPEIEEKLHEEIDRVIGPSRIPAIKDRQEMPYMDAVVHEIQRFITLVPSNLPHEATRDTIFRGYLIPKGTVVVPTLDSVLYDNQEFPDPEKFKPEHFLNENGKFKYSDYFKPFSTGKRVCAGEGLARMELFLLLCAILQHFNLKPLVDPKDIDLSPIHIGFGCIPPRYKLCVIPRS

Kappa-type opioid receptor, sequence (P41145 whole entry): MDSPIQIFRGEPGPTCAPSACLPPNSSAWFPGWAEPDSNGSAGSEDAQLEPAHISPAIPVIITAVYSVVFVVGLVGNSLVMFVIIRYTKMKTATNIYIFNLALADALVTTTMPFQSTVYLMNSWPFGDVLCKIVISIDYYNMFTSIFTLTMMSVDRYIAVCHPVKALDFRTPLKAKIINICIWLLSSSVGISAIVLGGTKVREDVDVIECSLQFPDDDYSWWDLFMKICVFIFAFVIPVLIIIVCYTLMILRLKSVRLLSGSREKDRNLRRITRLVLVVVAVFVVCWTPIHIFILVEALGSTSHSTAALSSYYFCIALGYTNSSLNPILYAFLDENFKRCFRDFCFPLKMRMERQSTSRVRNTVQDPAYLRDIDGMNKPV
Nitric oxide synthase 1, sequence (P29476 whole entry): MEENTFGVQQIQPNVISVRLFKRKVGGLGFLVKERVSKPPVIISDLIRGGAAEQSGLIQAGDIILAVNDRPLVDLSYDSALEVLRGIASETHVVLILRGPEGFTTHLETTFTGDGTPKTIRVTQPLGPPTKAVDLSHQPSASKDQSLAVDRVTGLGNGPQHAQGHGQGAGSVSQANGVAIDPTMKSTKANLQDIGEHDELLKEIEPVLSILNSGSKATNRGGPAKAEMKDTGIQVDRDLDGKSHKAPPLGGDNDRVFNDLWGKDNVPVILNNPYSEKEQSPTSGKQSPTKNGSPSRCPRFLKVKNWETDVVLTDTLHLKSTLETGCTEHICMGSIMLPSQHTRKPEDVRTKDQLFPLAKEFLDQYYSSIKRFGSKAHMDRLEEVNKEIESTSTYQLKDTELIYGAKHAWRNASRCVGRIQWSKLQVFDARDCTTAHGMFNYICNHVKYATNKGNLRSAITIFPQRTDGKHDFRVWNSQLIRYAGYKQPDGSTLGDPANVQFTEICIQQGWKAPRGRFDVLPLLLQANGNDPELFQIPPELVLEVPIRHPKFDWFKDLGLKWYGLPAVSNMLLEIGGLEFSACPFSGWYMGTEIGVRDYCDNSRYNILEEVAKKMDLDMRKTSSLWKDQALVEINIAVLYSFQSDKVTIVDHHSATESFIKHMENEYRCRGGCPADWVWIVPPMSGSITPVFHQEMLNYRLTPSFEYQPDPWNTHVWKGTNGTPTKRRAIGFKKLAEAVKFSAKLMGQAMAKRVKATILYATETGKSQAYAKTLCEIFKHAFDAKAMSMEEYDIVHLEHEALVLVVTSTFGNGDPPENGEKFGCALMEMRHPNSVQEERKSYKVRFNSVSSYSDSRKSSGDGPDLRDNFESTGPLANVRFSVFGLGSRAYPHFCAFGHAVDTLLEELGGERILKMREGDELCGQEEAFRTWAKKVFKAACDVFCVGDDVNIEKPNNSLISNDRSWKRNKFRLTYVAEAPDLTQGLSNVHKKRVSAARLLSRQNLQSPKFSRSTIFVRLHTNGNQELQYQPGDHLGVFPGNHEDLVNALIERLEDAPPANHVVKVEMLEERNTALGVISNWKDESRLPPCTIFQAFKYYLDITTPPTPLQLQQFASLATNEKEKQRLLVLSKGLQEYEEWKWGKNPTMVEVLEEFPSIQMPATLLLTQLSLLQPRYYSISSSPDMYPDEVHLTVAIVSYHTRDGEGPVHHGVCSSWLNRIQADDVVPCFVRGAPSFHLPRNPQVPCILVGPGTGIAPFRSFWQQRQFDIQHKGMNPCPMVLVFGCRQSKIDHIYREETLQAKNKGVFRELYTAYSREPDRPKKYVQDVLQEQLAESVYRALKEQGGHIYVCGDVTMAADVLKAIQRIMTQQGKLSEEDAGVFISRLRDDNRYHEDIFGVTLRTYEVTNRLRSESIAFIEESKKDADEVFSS

Row | Compound | IC50 [1] | Ki [1] | IC50 [2] | IC50 ([3]; bti-tn-5b1-4) | IC50 [4] | Ki [5] | IC50 ([5]; read-out: IC50) | IC50 ([6]; cho) | IC50 [7] | Ki [7] | IC50 [8] | Ki [8] | IC50 ([5]; hek293) | IC50 ([3]; read-out: IC50) | IC50 ([6]; read-out: IC50) | Ki ([6]; read-out: Ki) | Ki [2] | Ki ([3]; bti-tn-5b1-4) | Ki [4] | Ki ([6]; cho)
1 | CC(C)(C)NC(=O)[C@@H]1C[C@@H]2CCCC[C@@H]2CN1C[C@@H](O)[C@H](Cc1ccccc1)NC(=O)[C@H](CC(N)=O)NC(=O)c1ccc2ccccc2n1 | Not Active | Not Active | Not Active | Not Active | Not Active | 2.78 µM | 6.95 µM | Not Active | Not Active | Not Active | Not Active | Not Active |  |  |  |  |  |  |  | 
2 | CC(=O)[C@@]1(O)CC[C@H]2[C@@H]3C[C@H](C)C4=CC(=O)CC[C@]4(C)[C@H]3CC[C@@]21C | Not Active | Not Active | Not Active | Not Active | Not Active |  |  | Not Active | Not Active | Not Active | Not Active | Not Active | Not Active |  |  |  |  |  |  | 
3 | N[C@@H](Cc1ccc(N(CCCl)CCCl)cc1)C(=O)O | Not Active | Not Active | Not Active | Not Active | Not Active |  |  | Not Active | Not Active | Not Active | Not Active | Not Active |  |  |  |  |  |  |  | 
4 | CCCCc1oc2ccccc2c1C(=O)c1cc(I)c(OCCN(CC)CC)c(I)c1 [AMIODARONE] |  |  | Not Active | Not Active | Not Active |  |  | Not Active | Not Active | Not Active | Not Active | Not Active |  |  |  |  |  |  |  | 
5 | OCCN(CCO)c1nc(N2CCCCC2)c2nc(N(CCO)CCO)nc(N3CCCCC3)c2n1 [DIPYRIDAMOLE] | Not Active | Not Active | Not Active | Not Active | Not Active |  |  | Not Active | Not Active | Not Active | Not Active | Not Active | Not Active |  |  |  |  |  |  | 
6 | Cc1oncc1C(=O)Nc1ccc(C(F)(F)F)cc1 [LEFLUNOMIDE] | Not Active | Not Active | Not Active |  | Not Active |  |  | Not Active | Not Active | Not Active | Not Active | Not Active | Not Active | 20.7 µM |  |  |  |  |  | 
7 | c1ccc([C@H]2CN3CCSC3=N2)cc1 [LEVAMISOLE] | Not Active | Not Active | Not Active | Not Active | Not Active |  |  | Not Active | Not Active | Not Active | Not Active | Not Active | Not Active |  |  |  |  |  |  | 
8 | N[C@@H](Cc1ccc(O)c(O)c1)C(=O)O [LEVODOPA] | Not Active | Not Active | Not Active | Not Active | Not Active |  |  | Not Active | Not Active | Not Active | Not Active | Not Active | Not Active |  |  |  |  |  |  | 
9 | N[C@@H](Cc1cc(I)c(Oc2ccc(O)c(I)c2)c(I)c1)C(=O)O [LIOTHYRONINE] |  |  | Not Active | Not Active | Not Active |  |  |  | Not Active | Not Active | Not Active | Not Active | Not Active |  | 411 nM | 240 nM |  |  |  | 
10 | O=NN(CCCl)C(=O)NC1CCCCC1 [LOMUSTINE] | Not Active | Not Active | Not Active | Not Active | Not Active |  |  | Not Active | Not Active | Not Active | Not Active | Not Active | Not Active |  |  |  |  |  |  | 
11 | CCOC(=O)N1CCC(=C2c3ccc(Cl)cc3CCc3cccnc32)CC1 [LORATADINE] | Not Active | Not Active | Not Active | Not Active | Not Active |  |  | Not Active | Not Active | Not Active | Not Active | Not Active | Not Active |  |  |  |  |  |  | 
12 | Cn1ccnc1S [METHIMAZOLE] | Not Active | Not Active | Not Active | Not Active | Not Active |  |  | Not Active | Not Active | Not Active | Not Active | Not Active | Not Active |  |  |  |  |  |  | 
13 | CC[C@@H](CO)NC(=O)[C@@H]1C=C2c3cccc4[nH]cc(c34)C[C@H]2N(C)C1 [METHYLERGONOVINE] |  |  | Not Active | Not Active | Not Active |  |  | Not Active | Not Active | Not Active | Not Active | Not Active |  |  |  |  |  |  |  | 
14 | COc1nc(C)nc(Cl)c1NC1=NCCN1 [MOXONIDINE] | Not Active | Not Active | Not Active | Not Active | Not Active |  |  | Not Active | Not Active | Not Active | Not Active | Not Active | Not Active |  |  |  |  |  |  | 
15 | COc1c(C)c2c(c(O)c1C/C=C(\C)CCC(=O)O)C(=O)OC2 [MYCOPHENOLIC ACID] | Not Active | Not Active | Not Active | Not Active | Not Active |  |  | Not Active | Not Active | Not Active | Not Active | Not Active | Not Active |  |  |  |  |  |  | 
16 | CN1CCN(CCCN2c3ccccc3Sc3ccc(Cl)cc32)CC1 [PROCHLORPERAZINE] |  |  | Not Active | Not Active | Not Active |  |  | Not Active | Not Active | Not Active | Not Active | Not Active | Not Active |  |  |  |  |  |  | 
17 | Nc1nc2ccc(OC(F)(F)F)cc2s1 [RILUZOLE] | Not Active | Not Active | Not Active | Not Active | Not Active |  |  | Not Active |  |  |  |  | Not Active |  |  |  |  |  |  | 
18 | Cc1nc2n(c(=O)c1CCN1CCC(c3noc4cc(F)ccc34)CC1)CCCC2 [RISPERIDONE] |  |  | Not Active | Not Active | Not Active |  |  | Not Active | Not Active | Not Active | Not Active | Not Active | Not Active |  |  |  |  |  |  | 
19 | CC/C(=C(\c1ccccc1)c1ccc(OCCN(C)C)cc1)c1ccccc1 [TAMOXIFEN] |  |  | Not Active | Not Active | Not Active | 6.25 µM |  |  | Not Active | Not Active | Not Active | Not Active |  |  |  |  |  |  |  | 
20 | SODIUM NITROPRUSSIDE | Not Active | Not Active | Not Active | Not Active | Not Active |  |  | Not Active | Not Active | Not Active | Not Active | Not Active |  |  |  |  | Not Active | Not Active | Not Active | Not Active

— ChEMBL document CHEMBL1909046, “DrugMatrix in vitro pharmacology data”
